Experimental findings from patent US20230233569A1 (Revolution Medicines, Inc., priority 2020, published 2023) are described below.

In assay [1] the test system is Capan-1 (K-Ras G12V). Briefly: CellTiter-Glo cell viability assay, 5-day treatment. Particulars: Homo sapiens, CAPAN-1, 120 h, 5-day treatment; read-out: Capan-1 Cell Viability assay data (K-Ras G12V, IC50). It is filed as cell-based. An outline of the steps: (§1)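 Viability is read as luminescence on day 5 after direct compound addition to plated cells, following about 30 minutes' room-temperature equilibration. Each signal is scaled to mean DMSO as 100%.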

In assay [2] the test system is NCI-H358 (K-Ras G12C). The assay is described as above. Format: cell-based. Particulars: Homo sapiens, NCI-H358, 120 h, 5-day treatment; read-out: H358 Cell Viability assay data (K-Ras G12C, IC50). An outline of the steps: as §1
In assay [3] the target is KRAS G12C (Homo sapiens, UniProt P01116+P62937, G12C). Briefly: Disruption of BRAF RBD interaction with Ras (FRET / MOA assay, with Cyclophilin A). It is filed as biochemical. The following applies: read-out: KRAS G12C FRET data, IC50. In a few lines: (§2)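 Here, compound titrations (ten points, factor 3, from 30 μM final) act on nucleotide-bound K-Ras and Cyclophilin A, and ternary complex formation disrupts the RAF RBD interaction.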
Chain of KRAS G12C (P01116 1-169 isoform P01116-2 G12C): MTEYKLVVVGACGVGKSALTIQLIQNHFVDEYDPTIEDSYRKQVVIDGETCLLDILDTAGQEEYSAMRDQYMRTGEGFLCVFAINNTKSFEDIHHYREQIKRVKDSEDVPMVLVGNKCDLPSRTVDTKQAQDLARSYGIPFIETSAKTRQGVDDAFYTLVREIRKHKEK
Chain of KRAS G12C (P62937 whole entry): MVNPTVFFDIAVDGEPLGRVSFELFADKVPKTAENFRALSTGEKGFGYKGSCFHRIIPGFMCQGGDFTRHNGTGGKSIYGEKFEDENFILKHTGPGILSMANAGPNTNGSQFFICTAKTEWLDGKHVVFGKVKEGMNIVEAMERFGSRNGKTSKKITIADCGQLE

The target in assay [4] is KRAS G12D (Homo sapiens, UniProt P01116+P62937, G12D). Described as above. Format: biochemical. Particulars: read-out: KRAS G12D FRET data, IC50. An outline of the steps: as §2
Chain of KRAS G12D (P01116 1-169 isoform P01116-2 G12D limits assumed): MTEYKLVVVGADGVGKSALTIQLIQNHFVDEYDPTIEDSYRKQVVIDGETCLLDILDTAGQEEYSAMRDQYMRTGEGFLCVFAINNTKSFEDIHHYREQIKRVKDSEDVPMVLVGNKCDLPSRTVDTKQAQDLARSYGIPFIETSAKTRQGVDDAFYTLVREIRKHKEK
Chain of KRAS G12D (P62937 whole entry): as the sequence (P62937 whole entry) above
Assay [5] concerns the target KRAS G12S (Homo sapiens, UniProt P01116+P62937, G12S). The description is as above. Format: biochemical. The following applies: read-out: KRAS G12S FRET data, IC50. In a few lines:
as §2

Assay [6] deals with KRAS G12V (Homo sapiens, UniProt P01116+P62937, G12V). Described as above. Format: biochemical. The following applies: KRAS G12V; read-out: KRAS G12V FRET data IC50. In a few lines: as §2
Chain of KRAS G12V (P01116 1-169 isoform P01116-2 G12V limits assumed): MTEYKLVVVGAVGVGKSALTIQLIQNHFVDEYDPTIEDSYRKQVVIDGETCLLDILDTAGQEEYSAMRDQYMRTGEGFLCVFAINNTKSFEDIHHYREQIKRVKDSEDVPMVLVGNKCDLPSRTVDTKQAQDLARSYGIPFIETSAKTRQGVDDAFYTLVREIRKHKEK
Chain of KRAS G12V (P62937 whole entry): as the sequence (P62937 whole entry) above
The target of assay [7] is KRAS G13C (Homo sapiens, UniProt P01116+P62937, G13C). The description is as above. Format: biochemical. The following applies: read-out: KRAS G13C FRET data, IC50. In a few lines:
as §2

The target in assay [8] is KRAS G13D (Homo sapiens, UniProt P01116+P62937, G13D). Described as above. Format: biochemical. Particulars: KRAS G13D; read-out: KRAS G13D FRET data IC50. An outline of the steps:
as §2

Assay [9] has as its target KRAS WT (Homo sapiens, UniProt P01116+P62937). The assay is described as above. The following applies: KRAS WT; read-out: KRAS WT FRET data IC50. Format: biochemical. In a few lines:
as §2

Assay [10] concerns the target NRAS G12C (Homo sapiens, UniProt P01111+P62937, G12C). The assay is described as above. Format: biochemical. The following applies: NRAS G12C; read-out: NRAS G12C FRET data IC50.
Assay [11] addresses KRAS Q61H (Homo sapiens, UniProt P01116+P62937, Q61H). The assay is described as above. The following applies: KRAS Q61H; read-out: KRAS Q61H FRET data IC50. Format: biochemical. An outline of the steps:
(§3)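 TR-FRET in 25 mM HEPES pH 7.3, 100 mM NaCl, 5 mM MgCl2, 0.1% BSA: 25 μM Cyclophilin A, 12.5 nM His6-Ras-GMPPNP, 50 nM GST-BRAF RBD with compound (10-point 3-fold series from 30 μM), 3 h at 25° C. Anti-His Eu/anti-GST APC added, 1.5 h more; IC50 from decreased FRET ratio versus DMSO.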

The target of assay [12] is NRAS Q61K (Homo sapiens, UniProt P01111+P62937, Q61K). Described as above. Particulars: NRAS Q61K; read-out: NRAS Q61K FRET data IC50. Format: biochemical. In a few lines:
as §3

For assay [13], the target named is NRAS Q61R (Homo sapiens, UniProt P01111+P62937, Q61R). The description is as above. Format: biochemical. The following applies: NRAS Q61R; read-out: NRAS Q61R FRET data IC50. An outline of the steps:
as §3

Assay [14] has as its target NRAS WT (Homo sapiens, UniProt P01111+P62937). The description is as above. Format: biochemical. The following applies: NRAS WT; read-out: NRAS WT FRET data IC50. In a few lines: as §3

Chain of KRAS Q61H (P01116 1-169 isoform P01116-2 Q61H limits assumed): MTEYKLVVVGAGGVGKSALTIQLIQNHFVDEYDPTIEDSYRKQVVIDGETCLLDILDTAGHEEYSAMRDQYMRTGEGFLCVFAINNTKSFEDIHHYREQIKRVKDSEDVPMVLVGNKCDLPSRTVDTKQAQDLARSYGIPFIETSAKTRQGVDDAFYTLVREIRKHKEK
Chain of KRAS Q61H (P62937 whole entry): as the sequence (P62937 whole entry) above
Chain of NRAS Q61R (P01111 whole entry Q61R): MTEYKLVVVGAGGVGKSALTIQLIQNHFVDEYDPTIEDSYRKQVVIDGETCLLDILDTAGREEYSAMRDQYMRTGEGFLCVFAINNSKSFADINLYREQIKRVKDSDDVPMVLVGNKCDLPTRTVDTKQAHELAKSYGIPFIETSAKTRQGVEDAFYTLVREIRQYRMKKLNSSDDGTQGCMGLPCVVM
Chain of NRAS Q61R (P62937 whole entry): as the sequence (P62937 whole entry) above
Chain of KRAS G13D (P01116 1-169 isoform P01116-2 G13D limits assumed): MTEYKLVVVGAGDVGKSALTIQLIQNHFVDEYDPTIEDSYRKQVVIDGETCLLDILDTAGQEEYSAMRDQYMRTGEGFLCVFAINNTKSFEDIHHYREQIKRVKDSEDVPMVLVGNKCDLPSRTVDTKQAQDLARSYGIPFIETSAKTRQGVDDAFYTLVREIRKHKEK
Chain of KRAS G13D (P62937 whole entry): as the sequence (P62937 whole entry) above
Chain of NRAS WT (P01111 whole entry): as the sequence (P01111 whole entry Q61R) above, with R61Q counted along it
Chain of NRAS WT (P62937 whole entry): as the sequence (P62937 whole entry) above
Chain of KRAS WT (P01116 1-169 isoform P01116-2 limits assumed): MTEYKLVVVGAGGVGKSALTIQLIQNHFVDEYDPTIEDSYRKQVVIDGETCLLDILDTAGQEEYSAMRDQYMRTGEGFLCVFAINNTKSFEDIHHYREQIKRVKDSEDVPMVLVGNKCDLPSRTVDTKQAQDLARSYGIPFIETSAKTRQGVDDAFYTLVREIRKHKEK
Chain of KRAS WT (P62937 whole entry): as the sequence (P62937 whole entry) above
Chain of NRAS Q61K (P01111 whole entry Q61K): as the sequence (P01111 whole entry Q61R) above, with R61K counted along it
Chain of NRAS Q61K (P62937 whole entry): as the sequence (P62937 whole entry) above
Chain of KRAS G12S (P01116 1-169 isoform P01116-2 G12S limits assumed): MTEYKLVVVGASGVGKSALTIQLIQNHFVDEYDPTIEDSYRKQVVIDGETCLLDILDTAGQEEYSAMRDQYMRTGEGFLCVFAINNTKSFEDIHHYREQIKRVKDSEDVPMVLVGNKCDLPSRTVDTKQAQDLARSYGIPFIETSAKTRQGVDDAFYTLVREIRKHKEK
Chain of KRAS G12S (P62937 whole entry): as the sequence (P62937 whole entry) above
Chain of NRAS G12C (P01111 whole entry G12C): as the sequence (P01111 whole entry Q61R) above, with G12C, R61Q counted along it
Chain of NRAS G12C (P62937 whole entry): as the sequence (P62937 whole entry) above
Chain of KRAS G13C (P01116 1-169 isoform P01116-2 G13C): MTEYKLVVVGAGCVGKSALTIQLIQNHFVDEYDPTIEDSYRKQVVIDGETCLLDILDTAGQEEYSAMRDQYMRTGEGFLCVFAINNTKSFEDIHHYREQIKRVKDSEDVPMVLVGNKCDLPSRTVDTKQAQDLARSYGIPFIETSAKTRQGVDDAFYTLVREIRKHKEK
Chain of KRAS G13C (P62937 whole entry): as the sequence (P62937 whole entry) above

With `CCn1c(-c2cccnc2[C@H](C)OC)c2c3cc(ccc31)-c1csc(n1)C[C@H](NC(=O)[C@H](C(C)C)N(C)C(=O)N1CC(OC)C1)C(=O)N1CC[C@H](C)[C@H](N1)C(=O)OCC(C)(C)C2` [Example A579, N-((2S)-1-(((6^3S,6^4S,4S,Z)-1^1-ethyl-1^2-(2-((S)-1-methoxyethyl)pyridin-3-yl)-6^4,10,10-trimethyl-5,7-dioxo-6^1,6^2,6^3,6^4,6^5,6^6-hexahydro-1^1H-8-oxa-2(4,2)-thiazola-1(5,3)-indola-6(1,3)-pyridazinacycloundecaphane-4-yl)amino)-3-methyl-1-oxobutan-2-yl)-3-methoxy-N-methylazetidine-1-carboxamide], the IC50 – broadly, the concentration needed to halve the response being measured – in assay [1] is 100 to 1000 nM; in assay [2], 100 to 1000 nM; in assay [3], 100 to 1000 nM; in assay [4], 1000 to 10000 nM; in assay [5], 1000 to 10000 nM; in assay [6] it was 100 to 1000 nM. For the same compound, the IC50 in [7] fell in the range of 100 to 1000 nM; in assay [8], 1000 to 10000 nM; in [9] it was 100 to 1000 nM; in assay [10], 100 to 1000 nM; in [11] it was 100 to 1000 nM; in assay [12] it was 100 to 1000 nM. Moreover, the IC50 in [13] and in [14] was 100 to 1000 nM each time.

As to `CCn1c(-c2cccnc2[C@H](C)OC)c2c3cc(ccc31)-c1csc(n1)C[C@H](NC(=O)[C@H](C(C)C)N(C)C(=O)N(C)[C@@H]1CCCN(C)C1)C(=O)N1CCC[C@H](N1)C(=O)OCC(C)(C)C2` [Example A587], the IC50 in [1] was in the range of 10 to 100 nM; in assay [2], 10 to 100 nM; in [3] it was 100 to 1000 nM; in assay [4], 100 to 1000 nM; in assay [5] it was 100 to 1000 nM; in [6], 1000 to 10000 nM. Moreover, the IC50 in assay [7], in assay [8], in assay [9], in assay [10], in assay [11] and in assay [12] was 100 to 1000 nM each time. The IC50 in assay [13] and in assay [14] was 100 to 1000 nM throughout.

In the case of `CCn1c(-c2cccnc2[C@H](C)OC)c2c3cc(ccc31)-c1csc(n1)C[C@H](NC(=O)[C@H](C(C)C)N(C)C(=O)N1CC[C@H](N(C)C)C1)C(=O)N1CCC[C@H](N1)C(=O)OCC(C)(C)C2` [Example A603], the IC50 was in the range of 10 to 100 nM in assay [1]; 10 to 100 nM in assay [2]; 100 to 1000 nM in [3]; 100 to 1000 nM in assay [4]; 100 to 1000 nM in assay [5]; 100 to 1000 nM in [6]. Besides, the IC50 in assay [7], in assay [8], in assay [9], in [10], in assay [11] and in assay [12] was 100 to 1000 nM each time. In addition, the IC50 in assay [13] and in [14] was 100 to 1000 nM each time.

Regarding `CCn1c(-c2cccnc2[C@H](C)OC)c2c3cc(ccc31)-c1csc(n1)C[C@H](NC(=O)[C@H](C(C)C)N(C)C(=O)N1CCOC[C@@H]1c1ccccc1)C(=O)N1CCC[C@H](N1)C(=O)OCC(C)(C)C2` [Example A604], the IC50 in assay [1] was in the range of 1000 to 10000 nM; in assay [2] it was 100 to 1000 nM; in assay [3] it was 1000 to 10000 nM; in assay [4] it was 1000 to 10000 nM; in assay [5], 1000 to 10000 nM; in assay [6], 1000 to 10000 nM. In addition, the IC50 in assay [7] was in the range of 1000 to 10000 nM; in [8] it was 1000 to 10000 nM; in assay [9], 1000 to 10000 nM; in [10], 1000 to 10000 nM; in assay [11], 100 to 1000 nM; in [12], 100 to 1000 nM. In addition, the IC50 in assay [13] and in [14] was 1000 to 10000 nM each time.
